Laboratory results reported in patent publication US12435061B2 (priority 2020, dated 2025).
Where a name gives a salt, the structure may show the parent alone. Read-outs that look alike come from different tables or passages of the source.

Molecular target: hTRPV3 (Homo sapiens (Human), UniProt Q8NET8)
Test: Whole-cell patch clamp, hTRPV3 Phase 1 / Phase 2 currents
Assay type: cell-based
Description: Whole-cell patch clamp experiments permit the detection of currents through the TRPV3 channel in the cell line described above. A glass electrode is brought into contact with a single cell and the membrane is then ruptured, permitting control of the voltage of the cell membrane and measurement of currents flowing across the membrane using the amplifier attached to the electrode. A perfusion system permits control of the extracellular solution, including the addition of blockers and activators of the current. The current can be activated by heating this solution to 28° C. or warmer or by addition of 20 μM 2-APB to the solution.
TRPV3 cells were induced 20-48 hours, removed from growth plates, and replated at low density (to attain good single-cell physical separation) on glass coverslips for measurement. In some cases, cells were grown in low density overnight on glass coverslips. Patch clamp recordings were made in the whole-cell mode with a holding potential of −40 mV. Every 5 seconds, a voltage ramp was applied from −120 to +100 mV, 400 ms in duration. Currents elicited were quantified at −80 mV and +80 mV. […] External solution was Ringer's solution described above.
P1 refers to the Phase 1 current for human (h) TRPV3, and P2 refers to the Phase 2 current for human (h) TRPV3.
In Tables 3 and 4, Phase 1 refers to Phase 1 current for human (h) TRPV3 or rat (r) TRPV3, and Phase 2 refers to Phase 2 current for human (h) TRPV3 or rat (r) TRPV3. The hTRPV3 and rTRPV3 assays were performed as described herein. hERG refers to the inhibition the human ERG (hERG) channel. NaV1.5, refers to the pore forming aL-subunit of the voltage-dependent cardiac Na(+) channel and is an integral membrane protein involved in the initiation and conduction of action potentials. hTRPV3 HAMA IC50 refers to the IC50 of TRPV3 cells stably expressed in TRex-293 cells. Solubility Ringer refers to the compounds' solubility in Ringer's solution. LM T1/2 refers to liver microsome half-lives in either rat or human liver microsomes. FLIPR IC50 refers to the IC50 of the test compounds against recombinant hTRPV3 cells.

[1] = Phase 1 current, inward, whole-cell patch clamp, read-out: hTRPV3 Patch P1 Inwd
[2] = Phase 1 current, read-out: hTRPV3 (nM) (Phase 1)
[3] = Phase 2 current, inward, whole-cell patch clamp, read-out: hTRPV3 Patch P2 Inwd
[4] = Phase 2 current, read-out: hTRPV3 (nM) (Phase 2)

Sequence of hTRPV3 (Q8NET8 whole entry): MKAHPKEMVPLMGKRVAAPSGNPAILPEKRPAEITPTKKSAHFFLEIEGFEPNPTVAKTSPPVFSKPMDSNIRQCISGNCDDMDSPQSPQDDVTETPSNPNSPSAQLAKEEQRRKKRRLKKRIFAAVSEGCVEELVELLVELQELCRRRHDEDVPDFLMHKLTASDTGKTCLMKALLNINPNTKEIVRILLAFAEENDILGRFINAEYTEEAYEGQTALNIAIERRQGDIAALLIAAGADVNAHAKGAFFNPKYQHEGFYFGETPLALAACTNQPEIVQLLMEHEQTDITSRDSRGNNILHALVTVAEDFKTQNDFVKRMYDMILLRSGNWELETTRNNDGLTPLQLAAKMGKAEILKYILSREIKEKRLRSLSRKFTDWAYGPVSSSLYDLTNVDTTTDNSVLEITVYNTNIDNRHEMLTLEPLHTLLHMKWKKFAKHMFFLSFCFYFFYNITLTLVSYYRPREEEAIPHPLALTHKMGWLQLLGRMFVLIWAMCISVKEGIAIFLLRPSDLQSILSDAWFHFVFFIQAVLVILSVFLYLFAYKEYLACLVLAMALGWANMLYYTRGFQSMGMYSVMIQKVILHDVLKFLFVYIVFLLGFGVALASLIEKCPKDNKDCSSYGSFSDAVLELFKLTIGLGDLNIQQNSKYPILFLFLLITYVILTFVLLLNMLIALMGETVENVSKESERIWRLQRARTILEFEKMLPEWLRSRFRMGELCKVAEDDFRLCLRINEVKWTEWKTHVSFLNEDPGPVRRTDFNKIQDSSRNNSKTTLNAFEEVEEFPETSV

SMILES	IC50 [1] [nM]	IC50 [2] [nM]	IC50 [3] [nM]	IC50 [4] [nM]	other results
COc1cc(-c2ccccc2Cl)ccc1N1CC[C@@H](Oc2ccc(C(F)(F)F)cn2)C1 [Compound 1-112, (R)-2-(1-(2′-chloro-3-methoxybiphenyl-4-yl)pyrrolidin-3-yloxy)-5-(trifluoromethyl)pyridine]	> 1000	~2900			hTRPV3 (nM) (Phase 2) (Phase 2 current): Incomplete Block
NC(=O)c1cc(-c2ccccc2Cl)ccc1N1CCC(Oc2ccc3ccccc3n2)C1=O (stereo not shown) [Compound 1-114, 2′-chloro-4-(2-oxo-3-(quinolin-2-yloxy)pyrrolidin-1-yl)biphenyl-3-carboxamide]	> 1000	~3900	> 1000	~3150	
Nc1cc(-c2ccccc2Cl)ccc1N1CC[C@@H](Oc2ccc(C(F)(F)F)cn2)C1 [Compound 1-116]					hTRPV3 (nM) (Phase 1) (Phase 1 current): Agonist/ Antagonist (Phase 1) Agonist/ Antagonist (Phase 2); hTRPV3 (nM) (Phase 2) (Phase 2 current): Agonist/ Antagonist (Phase 1) Agonist/ Antagonist (Phase 2)
NCc1cc(-c2ccccc2Cl)ccc1N1CC[C@H](Oc2ccc(C(F)(F)F)cn2)C1 [Compound 1-118, (S)-(2′-chloro-4-(3-(5-(trifluoromethyl)pyridin-2-yloxy)pyrrolidin-1-yl)biphenyl-3-yl)methanamine]	> 1000	~1300	> 1000	< 3200	
NCc1cc(-c2ccccc2)ccc1N1CC[C@H](Oc2ccc(C(F)(F)F)cn2)C1 [Compound 1-119, (S)-(4-(3-(5-(trifluoromethyl)pyridin-2-yloxy)pyrrolidin-1-yl)biphenyl-3-yl)methanamine]			> 1000	> 3200	
COc1cc(-c2ccccc2)ccc1N1CC[C@@H](Oc2ncc(C(F)(F)F)cc2Cl)C1 [Compound 1-120, (R)-3-chloro-2-(1-(3-methoxybiphenyl-4-yl)pyrrolidin-3-yloxy)-5-(trifluoromethyl)pyridine]		> 3200		> 3200	IC50 (hTRPV3 Patch P1 Inwd (nM), Phase 1 current, inward, whole-cell patch clamp): > 1000 nM; IC50 (hTRPV3 Patch P2 Inwd (nM), Phase 2 current, inward, whole-cell patch clamp): > 1000 nM
NCc1cc(-c2ccccc2Cl)ccc1N1CC[C@H](Oc2ncccc2Cl)C1 [Compound 1-122, (S)-(2′-chloro-4-(3-(3-chloropyridin-2-yloxy)pyrrolidin-1-yl)biphenyl-3-yl)methanamine hydrochloride]	> 1000	> 3200	> 1000	< 3200	
NC(=O)c1cc(-c2ccccc2)ccc1N1CCC(Oc2ccc3ccccc3n2)C1=O (stereo not shown) [Compound 1-123, 4-(2-oxo-3-(quinolin-2-yloxy)pyrrolidin-1-yl)biphenyl-3-carboxamide]	> 1000	> 3200			
NC(=O)c1cc(Oc2ccccc2)ccc1N1CC[C@H](Oc2ccc(C(F)(F)F)cn2)C1 [Compound 1-124, (S)-5-phenoxy-2-(3-(5-(trifluoromethyl)pyridin-2-yloxy)pyrrolidin-1-yl)benzamide]					IC50 (hTRPV3 Patch P1 Inwd (nM)): 100 to 1000 nM; IC50 (read-out: hTRPV3 (nM) (Phase 1)): 729 nM
NCc1cc(-c2ccccc2)ccc1N1CC[C@H](Oc2ncccc2Cl)C1 [Compound 1-125, (S)-(4-(3-(3-chloropyridin-2-yloxy)pyrrolidin-1-yl)biphenyl-3-yl)methanamine hydrochloride]			> 1000	> 3200	
OCc1cc(-c2ccccc2)ccc1N1CC[C@H](Oc2ncccc2Cl)C1 [Compound 1-126, (S)-(4-(3-(3-chloropyridin-2-yloxy)pyrrolidin-1-yl)biphenyl-3-yl)methanol]			100 to 1000	369	
CC(=O)NCc1cc(-c2ccccc2Cl)ccc1N1CC[C@H](Oc2ccc(C(F)(F)F)cn2)C1 [Compound 1-127, (S)—N-((2′-chloro-4-(3-(5-(trifluoromethyl)pyridin-2-yloxy)pyrrolidin-1-yl)biphenyl-3-yl)methyl)acetamide]			> 1000	1140	
NC(=O)c1ccc(O[C@H]2CCN(c3ccc(-c4ccccc4)cc3CO)C2)nc1 [Compound 1-144, (S)-6-(1-(3-(hydroxymethyl)biphenyl-4-yl)pyrrolidin-3-yloxy)nicotinamide]	> 1000	1280	> 1000	4220	
